Measured values as given in patent publication US12227509B2, “Dihydropyrazolopyrazinone derivative having MGAT2 inhibitory activity” (Shionogi & Co., Ltd., priority 2019, dated 2025).
In brackets after ≈: the same amount, converted by molar mass.

Legend:
CYP3A4 [1] = target: T1, CYP3A4 (Homo sapiens (Human), UniProt P08684); assay: CYP inhibition test, CYP3A4; assay type: in vitro ADME; settings: pooled human liver microsomes; terfenadine hydroxylation; given as 'five kinds'
From the text: (§1) Using commercially available pooled human hepatic microsome, and employing, as markers, 7-ethoxyresorufin O-deethylation (CYP1A2), tolbutamide methyl-hydroxylation (CYP2C9), mephenytoin 4'-hydroxylation (CYP2C19), dextromethorphan 0-demethylation (CYP2D6), and terfenadine hydroxylation (CYP3A4) as typical substrate metabolism reactions of human main five CYP enzyme forms (CYP1A2, 2C9, 2C19, 2D6, 3A4), an inhibitory degree of each metabolite production amount by the compound of the present invention was assessed. The reaction conditions are as follows: substrate, 0.5 μmol/L ethoxyresorufin (CYP1A2), 100 μmol/L tolbutamide (CYP2C9), 50 μmol/L S-mephenitoin (CYP2C19), 5 μmol/L dextromethorphan (CYP2D6), 1 μmol/L terfenedine (CYP3A4); reaction time, 15 minutes; reaction temperature, 37° C.; enzyme, pooled human liver microsomes 0.2 mg protein/mL; concentrations of the compound of the present invention, 1, 5, 10, 20 μmol/L (four points). As a reaction solution, each five kinds of substrates, human liver microsomes, or compound of the present invention in 50 mmol/L Hepes buffer were added to a 96-well plate at the composition as described above, and NADPH, as a cofactor was added to initiate metabolism reactions. After the incubation at 37° C. for 15 minutes, a methanol/acetonitrile=1/[…]) solution was added to stop the reaction. After the centrifugation at 3000 rpm for 15 minutes, resorufin (CYP1A2 metabolite) in the supernatant was quantified by a fluorescent multilabel counter or LC/MS/MS, and tolbutamide hydroxide (CYP2C9 metabolite), mephenytoin 4' hydroxide (CYP2C19 metabolite), dextrorphan (CYP2D6 metabolite), and terfenadine alcohol (CYP3A4 metabolite) were quantified by LC/MS/MS. Addition of only DMSO being a solvent dissolving a drug to a reaction system was adopted as a control (100%). Remaining activity (%) was calculated. IC50 was calculated by reverse presumption by a logistic model using the concentration and an inhibition rate.

CYP2C9 = CYP2C9 (Homo sapiens (Human), UniProt P11712); assay: CYP inhibition test, CYP2C9; assay type: in vitro ADME; settings: pooled human liver microsomes; tolbutamide methyl-hydroxylation; given as 'five kinds'
Sequence of CYP2C9 (P11712 whole entry): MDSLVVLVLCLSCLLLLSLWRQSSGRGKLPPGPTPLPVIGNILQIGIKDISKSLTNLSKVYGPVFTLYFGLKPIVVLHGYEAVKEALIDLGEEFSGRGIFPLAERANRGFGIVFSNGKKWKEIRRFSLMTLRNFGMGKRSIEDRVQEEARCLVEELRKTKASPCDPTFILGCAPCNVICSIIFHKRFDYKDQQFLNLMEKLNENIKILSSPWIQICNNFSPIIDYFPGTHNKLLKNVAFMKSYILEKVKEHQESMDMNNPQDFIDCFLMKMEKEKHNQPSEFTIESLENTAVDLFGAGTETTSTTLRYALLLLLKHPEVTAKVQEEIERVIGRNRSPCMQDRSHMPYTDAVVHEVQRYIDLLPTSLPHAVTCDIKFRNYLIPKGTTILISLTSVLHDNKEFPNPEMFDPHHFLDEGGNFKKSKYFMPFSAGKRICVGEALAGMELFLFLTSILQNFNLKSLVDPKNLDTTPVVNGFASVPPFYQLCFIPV
From the text: as §1

[2] = BA test (oral absorption); assay type: in vivo; settings: plasma; mice or SD rats; from AUCs of oral and intravenous administration
Method: Materials and methods for experiments to evaluate oral absorption
(1) Animals: the mice or SD rats were used.
(2) Breeding conditions: the mice or SD rats were allowed to freely take solid food and sterilized tap water.
(3) Setting of dosage and grouping: Oral administration and intravenous administration were performed with a predetermined dosage. Grouping was set as below. (dosage changed per compound)
Oral administration: 1 to 30 mg/kg (n=2 to 3)
Intravenous administration: 0.5 to 10 mg/kg (n=2 to 3)
(4) Preparation of administration solution: Oral administration was performed in the form of a suspension or a solution. Intravenous administration was performed after solubilization.
(5) Routes of administration: Oral administration was performed mandatory into the stomach by oral sonde. Intravenous administration was performed from caudal vein or femoral vein by syringes with needle.
(6) Evaluation items: blood was collected over time, and the plasma concentration of the compound of the present invention was measured by LC/MS/MS.
(7) Statistical analysis: regarding the transition of the plasma concentration of the compound of the present invention, the area under the plasma concentration-time curve (AUC) was calculated by non-linear least squares program WinNonlin (registered trademark), and the bioavailability (BA) of the compound of the present invention was calculated from the AUCs of the oral administration group and intravenous administration group.

CYP2C19 = CYP2C19 (Homo sapiens (Human), UniProt P33261); assay: CYP inhibition test, CYP2C19; assay type: in vitro ADME; settings: pooled human liver microsomes; mephenytoin 4′-hydroxylation; given as 'five kinds'
Sequence of CYP2C19 (P33261 whole entry): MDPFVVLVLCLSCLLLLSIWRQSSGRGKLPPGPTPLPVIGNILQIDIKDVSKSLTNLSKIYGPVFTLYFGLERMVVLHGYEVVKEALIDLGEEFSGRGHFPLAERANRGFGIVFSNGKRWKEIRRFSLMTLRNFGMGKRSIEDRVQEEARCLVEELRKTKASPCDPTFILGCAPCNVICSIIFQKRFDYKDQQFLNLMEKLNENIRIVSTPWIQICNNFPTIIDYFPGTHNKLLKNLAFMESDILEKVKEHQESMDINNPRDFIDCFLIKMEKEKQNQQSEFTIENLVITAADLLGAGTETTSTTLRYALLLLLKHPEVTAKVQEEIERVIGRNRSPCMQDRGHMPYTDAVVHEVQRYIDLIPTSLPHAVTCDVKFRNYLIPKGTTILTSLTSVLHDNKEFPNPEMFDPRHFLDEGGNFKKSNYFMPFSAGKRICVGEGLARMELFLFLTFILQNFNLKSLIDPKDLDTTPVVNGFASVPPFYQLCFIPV
From the text: as §1

CYP2D6 = CYP2D6 (Homo sapiens (Human), UniProt P10635); assay: CYP inhibition test, CYP2D6; assay type: in vitro ADME; settings: pooled human liver microsomes; dextromethorphan O-demethylation; given as 'five kinds'
Sequence of CYP2D6 (P10635 whole entry): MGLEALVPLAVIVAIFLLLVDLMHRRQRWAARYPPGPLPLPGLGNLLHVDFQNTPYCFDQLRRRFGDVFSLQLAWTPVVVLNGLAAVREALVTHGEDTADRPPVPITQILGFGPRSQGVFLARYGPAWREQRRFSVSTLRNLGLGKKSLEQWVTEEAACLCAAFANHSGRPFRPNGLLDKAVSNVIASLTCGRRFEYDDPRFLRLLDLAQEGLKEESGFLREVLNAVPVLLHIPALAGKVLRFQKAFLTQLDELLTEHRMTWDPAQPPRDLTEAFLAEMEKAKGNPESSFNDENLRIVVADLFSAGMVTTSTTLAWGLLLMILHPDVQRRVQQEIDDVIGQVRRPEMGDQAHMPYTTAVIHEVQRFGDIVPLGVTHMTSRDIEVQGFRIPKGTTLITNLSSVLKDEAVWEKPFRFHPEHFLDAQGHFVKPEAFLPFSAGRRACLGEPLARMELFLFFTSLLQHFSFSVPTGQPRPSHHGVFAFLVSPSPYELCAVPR
From the text: as §1

[3] = Metabolism stability test (human liver microsomes); assay type: in vitro ADME; settings: compound concentration 0.5 μmol/L, 37° C., 30 minutes, NADPH
Method: Using commercially available pooled human hepatic microsomes, the compound of the present invention was reacted for a constant time, a remaining rate was calculated by comparing a reacted sample and an unreacted sample, thereby, a degree of metabolism of the compound of the present invention in liver was assessed.
A reaction was performed (oxidative reaction) at 37° C. for 0 minute or 30 minutes in the presence of 1 mmol/L NADPH in 0.2 mL of a buffer (50 mmol/L Tris-HCl pH 7.4, 150 mmol/L potassium chloride, 10 mmol/L magnesium chloride) containing 0.5 mg protein/mL of human liver microsomes. After the reaction, 50 μL of the reaction solution was added to 100 μL of a methanol/acetonitrile=1/1 (v/v) solution, mixed and centrifuged at 3000 rpm for 15 minutes. The compound of the present invention in the supernatant was quantified by LC/MS/MS, and a remaining amount of the compound of the present invention after the reaction was calculated, letting a compound amount at 0 minute reaction time to be 100%.

hERG (IKr) = hERG (IKr) (Homo sapiens (Human), UniProt Q12809); assay: hERG test; assay type: cell-based; settings: CHO cells expressing hERG channel, pH 7.4, 10 μmol/L of test compound, read-out: % inhibition of hERG tail peak current (IKr)
Sequence of hERG (IKr) (Q12809 whole entry): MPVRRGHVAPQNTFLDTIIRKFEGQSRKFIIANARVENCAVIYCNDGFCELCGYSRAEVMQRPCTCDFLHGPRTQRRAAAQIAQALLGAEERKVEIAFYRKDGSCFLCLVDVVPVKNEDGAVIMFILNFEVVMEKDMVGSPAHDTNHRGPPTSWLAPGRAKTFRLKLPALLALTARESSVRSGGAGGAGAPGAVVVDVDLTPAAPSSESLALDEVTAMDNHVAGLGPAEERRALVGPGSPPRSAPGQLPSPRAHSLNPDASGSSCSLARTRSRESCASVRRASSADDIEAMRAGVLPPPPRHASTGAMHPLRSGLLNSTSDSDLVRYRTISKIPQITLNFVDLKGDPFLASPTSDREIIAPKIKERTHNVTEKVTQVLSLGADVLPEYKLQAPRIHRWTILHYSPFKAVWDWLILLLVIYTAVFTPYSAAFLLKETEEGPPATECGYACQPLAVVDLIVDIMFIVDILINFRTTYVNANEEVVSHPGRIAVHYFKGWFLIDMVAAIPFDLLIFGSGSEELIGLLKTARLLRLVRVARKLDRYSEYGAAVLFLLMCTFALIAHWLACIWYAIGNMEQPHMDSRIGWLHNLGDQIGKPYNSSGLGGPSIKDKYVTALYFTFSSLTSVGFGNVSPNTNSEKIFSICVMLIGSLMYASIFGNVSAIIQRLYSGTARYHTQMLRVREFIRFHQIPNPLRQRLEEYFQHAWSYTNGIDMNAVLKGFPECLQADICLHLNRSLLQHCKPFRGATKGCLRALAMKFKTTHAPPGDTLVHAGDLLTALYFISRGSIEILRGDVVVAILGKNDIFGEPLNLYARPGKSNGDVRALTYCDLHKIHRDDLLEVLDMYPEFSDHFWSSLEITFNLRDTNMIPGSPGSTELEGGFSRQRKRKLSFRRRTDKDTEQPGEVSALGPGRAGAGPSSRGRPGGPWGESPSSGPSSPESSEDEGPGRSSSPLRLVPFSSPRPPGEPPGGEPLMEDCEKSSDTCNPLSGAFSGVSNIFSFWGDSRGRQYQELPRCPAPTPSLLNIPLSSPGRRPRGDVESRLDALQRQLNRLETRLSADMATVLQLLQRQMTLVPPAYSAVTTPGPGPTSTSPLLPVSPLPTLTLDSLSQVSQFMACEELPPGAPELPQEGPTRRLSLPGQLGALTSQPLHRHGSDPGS
From the text: For the purpose of assessing risk of an electrocardiogram QT interval prolongation of the compound of the present invention, effects of the compound of the present invention on delayed rectifier K^+ current (IKr), which plays an important role in the ventricular repolarization process, was studied using CHO cells expressing human ether-a-go-go related gene (hERG) channel.
After a cell was retained at a membrane potential of −80 mV by whole cell patch clamp method using an automated patch clamp system (QPatch; Sophion BIoscience A/S), IKr induced by application of a leak potential of −50 mV followed by depolarization pulse stimulation at +20 mV for 2 seconds and, further, repolarization pulse stimulation at −50 mV for 2 seconds, was recorded. […] From the recording IKr, an absolute value of the tail peak current was measured based on the current value at the resting membrane potential using analysis software (Falster Patch; Sophion Bioscience A/S). Further, the % inhibition of tail peak current for the compound of the present invention relative to the tail peak current after application of the vehicle is calculated to assess influence of the compound of the present invention on IKr.

CYP1A2 = CYP1A2 (Homo sapiens (Human), UniProt P05177); assay: CYP inhibition test, CYP1A2; assay type: in vitro ADME; settings: pooled human liver microsomes; 7-ethoxyresorufin O-deethylation; given as 'five kinds'
Sequence of CYP1A2 (P05177 whole entry): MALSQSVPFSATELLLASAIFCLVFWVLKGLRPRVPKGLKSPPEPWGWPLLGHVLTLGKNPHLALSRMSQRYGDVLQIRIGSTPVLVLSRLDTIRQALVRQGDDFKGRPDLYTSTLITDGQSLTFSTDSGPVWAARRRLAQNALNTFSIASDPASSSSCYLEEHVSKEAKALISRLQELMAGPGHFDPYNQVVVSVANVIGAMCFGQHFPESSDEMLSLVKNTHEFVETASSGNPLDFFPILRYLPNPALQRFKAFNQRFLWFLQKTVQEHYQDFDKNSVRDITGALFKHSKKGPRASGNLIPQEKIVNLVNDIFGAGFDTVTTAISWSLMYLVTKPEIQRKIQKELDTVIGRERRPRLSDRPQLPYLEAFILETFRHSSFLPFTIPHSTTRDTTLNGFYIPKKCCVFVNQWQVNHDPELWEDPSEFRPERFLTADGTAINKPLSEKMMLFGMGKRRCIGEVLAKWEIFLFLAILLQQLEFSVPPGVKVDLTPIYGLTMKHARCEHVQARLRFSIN
From the text: as §1

[4] = Solubility test (1% DMSO addition, pH 6.8 artificial intestinal juice); assay type: physicochemical; settings: kinetic from dmso stock, 16 hours at 25° C.
Method: The solubility of the compound of the present invention was determined under 1% DMSO addition conditions. 10 mmol/L solution of the compound was prepared with DMSO, and 6 μL of the solution of the compound of the present invention was added to 594 μL of pH 6.8 artificial intestinal juice (118 mL of 0.2 mol/L NaOH test solution and water were added to 250 mL of 0.2 mol/L potassium dihydrogen phosphate test solution to reach 1000 mL). The mixture was left standing for 16 hours at 25° C., and the mixture was vacuum-filtered. The filtrate was two-fold diluted with methanol/water=1/1 (V/V), and the compound concentration in the filtrate was measured with HPLC or LC/MS/MS by the absolute calibration method. The dilution concentration and the dilution solvent were changed as necessary.

CYP3A4 [5] = target: T1, CYP3A4; assay: CYP3A4 (MDZ) MBI test; assay type: in vitro ADME; settings: pooled human liver microsomes; midazolam 1-hydroxylation; preincubation 0 vs 30 min
Method: CYP3A4 (MDZ) MBI test is a test of investigating mechanism based inhibition (MBI) potential on CYP3A4 by the enhancement of inhibitory degree of a metabolic reaction caused by the compound of the present invention. CYP3A4 inhibition was evaluated using pooled human liver microsomes by 1-hydroxylation reaction of midazolam (MDZ) as a marker reaction.
The reaction conditions are as follows: substrate, 10 μmol/L MDZ; pre-reaction time, 0 or 30 minutes; substrate reaction time, 2 minutes; reaction temperature, 37° C.; protein content of pooled human liver microsomes, at pre-reaction time 0.5 mg/mL, at reaction time 0.05 mg/mL (at 10-fold dilution); concentrations of the compound of the present invention, at pre-reaction time 1, 5, 10, 20 μmol/L (four points).
Pooled human liver microsomes and a solution of the compound of the present invention in K-Pi buffer (pH 7.4) as a pre-reaction solution were added to a 96-well plate at the composition of the pre-reaction. A part of pre-reaction solution was transferred to another 96-well plate, and 1/10 diluted by K-Pi buffer containing a substrate. NADPH as a co-factor was added to initiate a reaction as a marker reaction (without pre-reaction). After a predetermined time of a reaction, methanol/acetonitrile=1/1 (V/V) solution was added to stop the reaction. In addition, NADPH was added to a remaining pre-reaction solution to initiate a pre-reaction (with pre-reaction). After a predetermined time of a pre-reaction, a part was transferred to another plate, and 1/10 diluted by K-Pi buffer containing a substrate to initiate a reaction as a marker reaction. After a predetermined time of a reaction, methanol/acetonitrile=1/1 (V/V) solution was added in order to stop the reaction. The plate on which each index reaction had been performed was centrifuged at 3000 rpm for 15 minutes, and thereafter 1-hydroxylated midazolam in the supernatant was quantified by LC/MS/MS.
The sample adding DMSO as a solvent to a reaction system instead of a solution dissolving the compound of the present invention was adopted as a control (100%). Remaining activity (%) was calculated at each concentration of the compound of the present invention compared to a control, and IC value was calculated by reverse-presumption by a logistic model using a concentration and an inhibition rate. IC at Preincubation 0 min/IC at Preincubation 30 min was defined as a value of Shifted IC, and a case that Shifted IC was 1.5 or more was regarded as Positive, and a case that Shifted IC was 1.0 or less was regarded as Negative.

T1 sequence (P08684 whole entry): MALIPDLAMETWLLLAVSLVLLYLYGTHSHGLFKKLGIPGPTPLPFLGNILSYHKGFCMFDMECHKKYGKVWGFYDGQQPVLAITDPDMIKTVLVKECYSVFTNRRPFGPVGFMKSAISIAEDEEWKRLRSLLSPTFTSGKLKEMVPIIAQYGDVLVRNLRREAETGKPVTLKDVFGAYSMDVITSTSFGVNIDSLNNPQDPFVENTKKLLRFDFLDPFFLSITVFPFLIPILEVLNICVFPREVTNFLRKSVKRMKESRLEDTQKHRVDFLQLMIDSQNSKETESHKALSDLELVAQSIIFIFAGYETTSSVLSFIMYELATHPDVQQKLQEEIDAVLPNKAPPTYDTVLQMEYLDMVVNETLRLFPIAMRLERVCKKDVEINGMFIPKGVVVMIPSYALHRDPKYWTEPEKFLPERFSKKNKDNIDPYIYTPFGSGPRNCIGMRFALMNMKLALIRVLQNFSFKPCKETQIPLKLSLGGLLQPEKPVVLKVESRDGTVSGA

SMILES	IC50 (CYP3A4 [1])	IC50 (CYP2C9)	bioavailability [2]	IC50 (CYP2C19)	IC50 (CYP2D6)	Remaining rate [3]	inhibition at 10 min, 10 μmol/L (hERG (IKr))	IC50 (CYP1A2)	solubility at 16 h [4]	CYP3A4 (MDZ) MBI (Shifted IC judgement) (CYP3A4 [5])
CS(=O)(=O)CC(=O)Nc1c(-c2ccc(F)c(F)c2)nn2c1C(=O)N[C@@]1(CCc3cc(OCC(F)(F)F)ccc31)C2 [Compound I-33]	> 20 µM	> 20 µM	60.5%	> 20 µM	> 20 µM	98.5%	21.3%	> 20 µM		
CS(=O)(=O)CC(=O)Nc1c(-c2ccc(F)cc2)nn2c1C(=O)N[C@@]1(CCOc3cc(OCC(F)(F)F)ccc31)C2 [Compound I-66]	> 20 µM	> 20 µM		> 20 µM	> 20 µM	105%	14.6%	> 20 µM	> 50 µM	Negative (a case that Shifted IC was 1.0 or less was regarded as Negative)
CS(=O)(=O)CC(=O)Nc1c(-c2ccc(F)c(F)c2)nn2c1C(=O)N[C@@]1(CCOc3cc(F)cc(F)c31)C2 [Compound I-126]	> 20 µM	> 20 µM		> 20 µM	> 20 µM	100%	14.2%	> 20 µM	> 50 µM	Negative (a case that Shifted IC was 1.0 or less was regarded as Negative)
CS(=O)(=O)CC(=O)Nc1c(-c2ccc(F)c(F)c2)nn2c1C(=O)N[C@@]1(CCc3cc(F)cc(F)c31)C2 [Compound I-130]	> 20 µM	> 20 µM		> 20 µM	> 20 µM	94.8%	15.4%	> 20 µM	> 50 µM	Negative (a case that Shifted IC was 1.0 or less was regarded as Negative)
CS(=O)(=O)CC(=O)Nc1c(-c2ccc(Cl)cn2)nn2c1C(=O)N[C@@]1(CCOc3cc(F)cc(F)c31)C2 [Compound I-137]			49%			101%	23.6%		> 50 µM	
CS(=O)(=O)CC(=O)Nc1c(-c2ccc(C3CC3)cn2)nn2c1C(=O)N[C@@]1(CCc3cc(F)cc(F)c31)C2 [Compound I-141]	> 20 µM	> 20 µM	67%	> 20 µM	> 20 µM	99.4%	14%	> 20 µM	48.9 µM (≈ 25.8 µg/mL)	
CS(=O)(=O)CC(=O)Nc1c(-c2ccc(Cl)cn2)nn2c1C(=O)N[C@]1(CCc3cc(F)cc(F)c31)C2 [Compound I-147]	> 20 µM	> 20 µM		> 20 µM	> 20 µM	89.8%	21.6%	> 20 µM	> 50 µM	Negative (a case that Shifted IC was 1.0 or less was regarded as Negative)
CS(=O)(=O)CC(=O)Nc1c(-c2ccc(Cl)cn2)nn2c1C(=O)N[C@]1(CCOc3cc(F)cc(F)c31)C2 [Compound I-151]	> 20 µM	> 20 µM		> 20 µM	> 20 µM	104%	25.8%	> 20 µM	> 50 µM	Negative (a case that Shifted IC was 1.0 or less was regarded as Negative)
